Source: paper PMC11161644, “An effective and rapidly degradable disinfectant from disinfection byproducts” (Nature Communications, 2024)
“And” between values parts separate entries of the source, which are not always exact repeats. Equal values may be shown once.

Key:
[1] = system: P. dumerilii embryos; test: Developmental toxicity assay with P. dumerilii embryos, dilution factor of in-use concentration (EC50,DF), also after degradation in darkness; assay type: in vivo, Platynereis dumerilii; conditions: for Normal development: 2,6-DCQ
Procedure, shortened: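 In-use DBP doses (3-log E. coli reduction, pH 7.2) were serially diluted onto embryos at 12 h postfertilization in seawater. Normal development to first larval stage was scored by microscopy at 24 h postfertilization, in duplicate. EC50,DF is the dilution factor giving 50% of control normal development.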

[2] = Degradation in seawater with simulated solar irradiation; conditions: for half-life at 10 mg L−1: buffer; for Ln (C/C0): 0 h
Procedure, shortened: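 DBP at 10 mg L^−1 in pretreated seawater was irradiated with simulated sunlight (4.79 ± 0.04 mW cm^−2) at 20 °C for 0‒96 h, with dark samples alongside. pH was held at 8.2 or set to 6.2/7.2 with 4 mM phosphate buffer. Remaining compound and products were measured by HPLC-UV (230/280 nm), in duplicate.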

[3] = system: E. coli (ATCC 25922); test: Inactivation of E. coli by disinfectants (membrane filter enumeration, contact time 5 min); assay type: cell-based, Escherichia coli
Procedure, shortened: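 E. coli ATCC 25922 (10^6‒10^7 cells/mL) exposed to a series of DBP doses in 10 mM PBS (pH 7.2; pH effect tested at 6.2, 7.2, 8.2) for 5 min at 22 ± 1 °C. Survivors enumerated by membrane filtration on m-FC medium at 45 °C for 24 h; inactivation relative to undisinfected control.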

[4] = Degradation in seawater in darkness (pH 6.2, 7.2, 8.2); conditions: for half-life at 10 mg L−1: buffer; for Ln (C/C0): 0 h
Procedure, shortened: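 DBP spiked at 10 mg L^−1 into pretreated seawater in foil-wrapped quartz flasks, held at 20 °C in darkness for 0‒120 h with 4 mM phosphate buffer at pH 6.2, 7.2 or 8.2. Aliquots analysed by reversed-phase HPLC-UV (230 or 280 nm); duplicate runs.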

For O=C1C=C(Cl)C(=O)C(Cl)=C1 [2,6-DCQ, 2,6-dichlorobenzoquinone], the Normal development ([1]; degradation 0 h, dilution factor 12.8) was 7.407% and 6.667%, the Normal development ([1]; degradation 0 h, dilution factor 17.0667) was 16.2963% and 20.7921% and the Normal development ([1]; degradation 0 h, dilution factor 21.3333) was 42.1875% and 37.2727%. For the same compound, the Normal development ([1]; degradation 0 h, dilution factor 25.6) was 62.0155% and 62.3077%, the Normal development ([1]; degradation 0 h, dilution factor 32) was 80% and 80.822% and the Normal development ([1]; degradation 0 h, dilution factor 42.6667) was 76.7442% and 82.4428%. The Normal development ([1]; degradation 1 h, dilution factor 6.4) was 1.886% and 1.145%, the Normal development ([1]; degradation 1 h, dilution factor 8.5333) was 4.186% and 11.8136% and the Normal development ([1]; degradation 1 h, dilution factor 10.6667) was 24.138% and 24.6154%. The Normal development ([1]; degradation 1 h, dilution factor 12.8) was 51.5152% and 47.1698%, the Normal development ([1]; degradation 1 h, dilution factor 16) was 70.5883% and 65.2173% and the Normal development ([1]; degradation 2 h, dilution factor 6.4) was 11.0368% and 10.1754%. The Normal development ([1]; degradation 2 h, dilution factor 8.5333) was 46.773% and 42.9328%, the Normal development ([1]; degradation 2 h, dilution factor 10.6667) was 58.0645% and 64.2277% and the Normal development ([1]; degradation 2 h, dilution factor 12.8) was 77.7778% and 71.0938%. For the same compound, the Normal development ([1]; degradation 2 h, dilution factor 16) was 82.2282% and 85.1792%, the Normal development ([1]; degradation 4 h, dilution factor 1.28) was 3.429% and 2.688% and the Normal development ([1]; degradation 4 h, dilution factor 1.6) was 15.8884% and 20.3842%. For the same compound, the Normal development ([1]; degradation 4 h, dilution factor 1.8286) was 27.1674% and 32.6748%, the Normal development ([1]; degradation 4 h, dilution factor 2.1333) was 54.2087% and 56.2379% and the Normal development ([1]; degradation 4 h, dilution factor 2.8444) was 78.1453% and 71.7507%. The Normal development ([1]; degradation 4 h, dilution factor 4.2667) was 76.1253% and 77.0995%, the Normal development ([1]; degradation 6 h, dilution factor 0.8) was 0% and the Normal development ([1]; degradation 6 h, dilution factor 0.9143) was 0%. The Normal development ([1]; degradation 6 h, dilution factor 1.0667) was 6.421% and 4.805%, the Normal development ([1]; degradation 6 h, dilution factor 1.28) was 19.2308% and 16.923% and the Normal development ([1]; degradation 6 h, dilution factor 1.6) was 44.5256% and 45.8716%. The Normal development ([1]; degradation 6 h, dilution factor 1.8286) was 55.6999% and 52.4319%, the Normal development ([1]; degradation 10 h, dilution factor 0.3657) was 0% and the Normal development ([1]; degradation 10 h, dilution factor 0.4267) was 10.4446% and 5.949%. The Normal development ([1]; degradation 10 h, dilution factor 0.512) was 22.4806% and 12.844%, the Normal development ([1]; degradation 10 h, dilution factor 0.64) was 50% and 42.3728% and the Normal development ([1]; degradation 10 h, dilution factor 0.8533) was 73.1885% and 72.3577%. For the same compound, the Normal development ([1]; degradation 10 h, dilution factor 1.28) was 86.5288% and 89.8492%, the Normal development ([1]; degradation 24 h, dilution factor 0.2844) was 11.3922% and 10.426% and the Normal development ([1]; degradation 24 h, dilution factor 0.32) was 28.4579%. The Normal development ([1]; degradation 24 h, dilution factor 0.3657) was 46.3636% and 52.9132%, the Normal development ([1]; degradation 24 h, dilution factor 0.4267) was 72.0505% and 66.5657% and the Normal development ([1]; degradation 24 h, dilution factor 0.512) was 75.7656% and 68.6094%. The Normal development ([1]; degradation 24 h, dilution factor 0.64) was 71.3237% and 68.0033%, the Normal development ([1]; degradation 48 h, dilution factor 0.2695) was 37.7015% and 37.2985% and the Normal development ([1]; degradation 48 h, dilution factor 0.2844) was 52.938% and 47.9316%. For the same compound, the Normal development ([1]; degradation 48 h, dilution factor 0.32) was 57.0093% and 59.2105%, the Normal development ([1]; degradation 48 h, dilution factor 0.3657) was 74.6032% and 77.2414% and the Normal development ([1]; degradation 48 h, dilution factor 0.4267) was 81.3111% and 83.4889%. For the same compound, the “Toxicity relative to PCMX (times less toxic)” value ([1]; after 48-h degradation in seawater in darkness) was 31 times, the “EC50,DF as share of EC50,DF of PCMX” value ([1]; after 48 h degradation in darkness) was 3.0% and the half-life at 10 mg L−1 ([2]; pH 6.2) was 4.13 h. For the same compound, the half-life at 10 mg L−1 ([2]; pH 7.2) was 3.2 h, the half-life at 10 mg L−1 ([2]; pH 8.2) was 1.33 h and the “Degradation rate constant k” value ([2]; pH 6.2, with solar irradiation) was 0.168 h⁻¹. For the same compound, the “Ln (C/C0)” value ([2]; pH 6.2 with solar irradiation) was 0, the “Degradation rate constant k” value ([2]; pH 7.2, with solar irradiation) was 0.217 h⁻¹ and the “Ln (C/C0)” value ([2]; pH 7.2 with solar irradiation) was 0. For the same compound, the “Ln (C/C0)” value ([2]; seawater pH 8.2, solar irradiation) was 0, the “Degradation rate constant k” value ([2]; seawater pH 8.2, with solar irradiation) was 0.520 h‒1 and the “Disinfection efficiency relative to PCMX (ratio of doses for 3-log inactivation)” value ([3]; E. coli, S. aureus, C. albicans and MS2, pH 7.2, 5 min) was 9.0–22 times. The “Log reduction (Mean ± SD)” value ([3]; E. coli, dose 7.5 mg L−1, pH 7.2, contact time 5 min) was 0.76 ± 0.16, the “Log reduction (Mean ± SD)” value ([3]; E. coli, dose 15 mg L−1, pH 7.2, contact time 5 min) was 4.24 ± 0.22 and the EC (3-log inactivation) ([3]; Escherichia coli, ATCC25922, 5 min, pH 7.2, read-out: Dose for achieving 3-log inactivation of E. coli) was 12.8 µg/mL. For the same compound, the “E. coli inactivation rate constant k” value ([3]; pH 7.2, contact time 5 min) was 5.50 L mg‒1 h‒1, the half-life at 10 mg L−1 ([4]; pH 6.2) was 76.2 h and the half-life at 10 mg L−1 ([4]; pH 7.2) was 13.4 h. For the same compound, the half-life at 10 mg L−1 ([4]; pH 8.2) was 1.74 h, the “Degradation rate constant k” value ([4]; pH 6.2, without solar irradiation) was 0.009 h⁻¹ and the “Ln (C/C0)” value ([4]; pH 6.2 in darkness) was 0. The “Ln (C/C0)” value ([4]; pH 7.2 in darkness) was 0, the “Ln (C/C0)” value ([4]; seawater pH 8.2, darkness) was 0 and the “Degradation rate constant k” value ([4]; seawater pH 8.2, without solar irradiation) was 0.397 h‒1.
